Laboratory results from publication PMC9101373, “Design of DNA Intercalators Based on 4-Carboranyl-1,8-Naphthalimides: Investigation of Their DNA-Binding Ability and Anticancer Activity” (International Journal of Molecular Sciences, 2022).

Assays:
calf thymus DNA (ct-DNA) = assay: Melting temperature (Tm) measurements of ct-DNA, thermal denaturation; type: binding; details: for ΔTm ct-DNA: r = [compound]/[ct-DNA] = 0.3, pH 7.0, 20 mM cacodylate buffer, Tm of ct-DNA alone 74 °C; for effect on thermal stability of ct-DNA (in words): thermal melting experiments
Experimental: The melting temperature (Tm) of DNA is defined as the temperature at which 50% of the DNA is in form of single strands forming randomly coiled structures. DNA melting is measured by the absorbance of UV light (260 nm) by the DNA solution, where the amount of UV light absorbed is proportional to the fraction of non-bonded base pairs. The majority of DNA-binding small molecules known thus far stabilize duplex DNA against heat denaturation. A high, drug-induced increase in the Tm of DNA is generally viewed as an excellent criterion to select DNA ligands and is a common feature of several anticancer drugs such as intercalators (a significant increase in Tm = 3–8 °C is observed for strong intercalation) and alkylators. The reverse situation (destabilization of DNA to facilitate its denaturation) may be an attractive option to identify therapeutic agents acting on the DNA structure.
Our study conducted Tm measurement to estimate the impact of 1,8-naphthalimides bearing the carborane cluster on DNA stabilization (Table 1, Figures S249–S253, ESI).
The measurements were performed by adding aliquots of DMSO stock solution of the tested compounds to the buffer solution (pH 7.0, 20 mM, cacodylate buffer, DMSO content of the final solution = 0.24–0.36%). The Tm curves were collected at r = 0.3 (r = [compound]/[ct-DNA]) to assure the dominant binding mode. Thermal melting curves were determined by following the absorption change at 260 nm as a function of temperature by using a GBC Cintra10 UV–vis spectrometer (Dandenong, Australia) equipped with a GBC Thermocell Peltier Power Supply (Dandenong, Australia) using a 1 cm path length cell. The absorbance of the samples was monitored at 260 nm from 30 to 90 °C (95 °C for compounds 54–61) with a heating rate of 1 °C/min. Tm values are the midpoints or the transition curves determined from the maximum of the first derivative. The ΔTm values were calculated by subtracting the Tm of the free nucleic acid from the Tm of the sample. Every Tm value reported in this study was average at least three measurements. The error in Tm was 0.5 °C.

HepG2 cells = assay: In vitro cytotoxic activity, MTT assay; type: cell-based, human; details: 24 h treatment, read-out: IC50, compound concentration required to inhibit cell growth by 50%
Experimental: The obtained 1,8-naphthalimide–carborane conjugates were investigated for their in vitro antitumor activity by examining their cytotoxic effects using the MTT tetrazolium dye assay against the human cancer cell line HepG2 established from hepatocellular carcinoma. IC50 refers to the drug concentration (µM) required to inhibit cell growth by 50%.
The cytotoxic properties of the synthesized compounds were evaluated using the human hepatocellular carcinoma cell line HepG2 established from hepatocellular carcinoma. The HepG2 cell line was purchased from ECACC (Salisbury, UK). Cells were grown in EMEM medium (Corning®) supplemented with 10% heat-inactivated fetal bovine serum (FBS) (Corning®) and antibiotics (Corning®), at 37 °C in a 5% CO2 atmosphere. Upon reaching 80–90% confluency, cells were detached with the trypsin (Corning®) and transferred into 96-well microplates at a density of 12 × 10^3. After overnight incubation at 37 °C in a humidified atmosphere containing 5% CO2, the cells were treated for the next 24 h with compounds. The stock solution of each compound was prepared in DMSO at 10 mM. The cytotoxicity was evaluated by the MTT assay. […] Subsequently, the medium was aspirated and replaced with 3-(4,5-dimethylthiazol-2-yl)-2,5-diphenyltetrazolium bromide (MTT) dye solution (50 µL, 0.5 mg/mL). After 3 h incubation, the resulting MTT formazan crystals were dissolved in DMSO (100 µL). To ensure the complete dissolution of formazan, the plates were shaken on an orbital microplate shaker at 1000 rpm for 15 min (Thermoshaker NeoLab 7–0055, Bionovo, Legnica, Poland). The optical density of each well was then measured on a VICTOR Nivo multimode plate reader at a wavelength of 570 nm. Each experiment consisted of 6 replications of each concentration, and each experiment was repeated three times independently. The results were calculated as a percentage of control group viability. The IC50 values were determined using a non-linear regression from the plot of % viability against log dose of compounds by using GraphPad Prism 6.0 software (GraphPad, San Diego, CA, USA).

Row | Substance | ΔTm ct-DNA (calf thymus DNA (ct-DNA)) [°C] | effect on thermal stability of ct-DNA (in words) (calf thymus DNA (ct-DNA)) | IC50 (HepG2 cells) [µM]
1 | N-[2-(Dimethylamino)ethyl]-4-{1-[3-(1,2-dicarba-closo-dodecaborane-1-yl)propyl]-1H-1,2,3-triazol-4-yl}methoxy-1,8-naphthalimide [Compound 16] | 2.00 | better DNA stabilization | 8.17 ± 3.72
2 | N-[2-(N-Pyrrolidinyl)ethyl]-4-[(2-(3-(1,7-dicarba-closo-dodecaborane-1-yl)propanamido)ethyl)amino]-1,8-naphthalimide [Compound 39] | 1.00 |  | 9.85 ± 0.59
3 | N-[2-(Dimethylamino)ethyl]-4-[3-(1,7-dicarba-closo-dodecaborane-1-yl)propoxy]-1,8-naphthalimide [Compound 26] | 1.33 | better DNA stabilization | 4.89 ± 2.59
4 | 4-{1-[3-(1,2-Dicarba-closo-dodecaborane-1-yl)propyl]-1H-1,2,3-triazol-4-yl}methoxy-1,8-naphthalic anhydride [Compound 14] | 0.33 |  | 34.1 ± 2.33
5 | 4-[3-(1,7-Dicarba-closo-dodecaborane-1-yl)propoxy]-1,8-naphthalic anhydride [Compound 23] | −0.33 | destabilization | 109 ± 3.78
6 | N-[2-(Dimethylamino)ethyl]-4-[3-(1,2-dicarba-closo-dodecaborane-1-yl)propoxy]-1,8-naphthalimide [Compound 24] | 1.33 | better DNA stabilization | 11 ± 0.66
7 | N-[2-(N-Pyrrolidinyl)ethyl]-4-[3-(1,2-dicarba-closo-dodecaborane-1-yl)propoxy]-1,8-naphthalimide [Compound 25] | 0.33 |  | 15.2 ± 2.02
8 | N-[2-(N-Pyrrolidinyl)ethyl]-4-[3-(1,7-dicarba-closo-dodecaborane-1-yl)propoxy]-1,8-naphthalimide [Compound 27] | 0.33 |  | 4.07 ± 1.19
9 | 4-[3-(1,2-Dicarba-closo-dodecaborane-1-yl)propoxy]-1,8-naphthalic anhydride [Compound 22] | −1.00 | destabilization | 28.7 ± 3.84
10 | N-[2-(N-Pyrrolidinyl)ethyl]-4-[(6-(3-(1,2-dicarba-closo-dodecaborane-1-yl)propanamido)hexyl)amino]-1,8-naphthalimide [Compound 42] | 0.67 |  | 21.1 ± 3.34
11 | N-[2-(N-Pyrrolidinyl)ethyl]-4-[(6-(3-(1,2-dicarba-closo-dodecaborane-1-yl)propanamido)hexyl)amino]-1,8-naphthalimide [Compound 43] | 1.00 |  | 40 ± 3.89
12 | N-[2-(N-Pyrrolidinyl)ethyl]-4-{1-[3-(1,2-dicarba-closo-dodecaborane-1-yl)propyl]-1H-1,2,3-triazol-4-yl}-1,8-naphthalimide [Compound 9] | 0.67 |  | 29.6 ± 1.89
13 | N-[2-(Dimethylamino)ethyl]-4-{1-[3-(1,7-dicarba-closo-dodecaborane-1-yl)propyl]-1H-1,2,3-triazol-4-yl}methoxy-1,8-naphthalimide [Compound 18] | 0.37 |  | 5.8 ± 0.23
14 | N-[2-(Dimethylamino)ethyl]-4-[(6-(3-(1,2-dicarba-closo-dodecaborane-1-yl)propanamido)hexyl)amino]-1,8-naphthalimide [Compound 40] | 0.67 |  | 12.2 ± 0.44
15 | N-[2-(Dimethylamino)ethyl]-4-{1-[3-(1,7-dicarba-closo-dodecaborane-1-yl)propyl]-1H-1,2,3-triazol-4-yl}-1,8-naphthalimide [Compound 10] | 0.67 |  | 5.35 ± 1.9
